Results reported in patent US4605649A, “Method of treatment of estrogen deficiency disease” (priority 1984, dated 1986).
Read-outs that look alike come from different tables or passages of the source.

How the values were obtained:
[1] = system: tumors in experimental animals; conditions: prolonged treatment; testes, endometrium, ovary, cervix, mammary and other tissues; cited from earlier work
protein or peptides = conditions: cited from earlier work
DNA = conditions: cited from earlier work
estrogenic activity = conditions: catechol metabolites; cited from earlier work
[2] = system: renal clear cell carcinoma; test: In vivo carcinogenicity: renal clear-cell carcinoma in male Syrian hamsters
Method: (§1) Male Syrian hamsters, 3-4 weeks of age (Harlan/Sprague Dawley, Madison, Wis.), were given a 25 mg. s.c. implant consisting of 10% cholesterol and 90% estrogen. A second 25 mg. pellet of the same composition was implanted 106 days after the initial estrogen treatment. Estrogen treatment was carried out according to the procedure of Kirkman--National Cancer Institute Monograph, 2, 1-57 (1959). Control animals were left untreated. Two hundred twenty-four days after treatment with estrogens had begun, hamsters were weighed, killed, both testes were excised and their weights measured in grams. Data presented in Table 1 are the ranges of testes weights from four animals in each group. Weights are expressed as percentages of total body weights.
The carcinogenicity of the modified estrogens was measured in male Syrian hamsters in vivo. Estrogen, and estrogen alone, causes renal clear cell carcinoma in 100% of the male animal population when exposed to s.c. estrogen implants. This kidney tumor is estrogen-induced and estrogen-dependent for development and growth. Failure to resupply estrogen every three months or surgical removal of implants results in tumor regression within a few weeks. […] The spontaneous kidney tumor incidence in Syrian hamsters without estrogen treatment is very low. The above facts are fully discussed in Kirkman, Nat'l. Can. Inst. Monograph, 1, 1 (1959); McGregor et al., J. Nat'l. Can. Inst., 24, 1057 (1960) and Sirbasku et al., Endocrin., 98, 1260 (1976).
The protocol employed was that set out for determining estrogen activity in male hamsters according to Table 1 (in that the animals examined for tumors at 224 days were the source of the testes). In the carcinogenicity experiment, further groups of animals were examined at 279 and 345 days. The animals were decapitated, the kidneys were excised and inspected visually for the occurrence of renal celear-cell carcinoma. Sections were prepared of all kidneys and studied histologically. In the table, column 1 gives the name of the compound, column 2 the total number of animals, column 3, the number of dead or lost animals and columns 4, 5 and 6 results of histologic examination of animals at the specified time interval for renal clear-cell carcinoma.

estrogen receptor [3] = conditions: cytosol of hypothalamus-preoptic area, pituitary, uterus; Pfeiffer et al. (1982); cited from earlier work
[4] = system: testes of male Syrian hamsters; test: Testes weight of male hamsters after s.c. estrogen implant (estrogenicity); format: in vivo; conditions: for Range Of Testes Weight Of Male Hamsters: 25 mg s.c. pellet (90% estrogen), second pellet at 106 days, four animals per group
Method: In a second method, the weights of both testes of those male Syrian hamsters which were used in the in vivo carcinogenicity assay, were measured on the 224th day after s.c. implantation of 25 mg. pellets of estrogen. The weights were measured in grams (expressed as percent of total body weight).
as §1

estrogen receptor [5] = conditions: relative to estradiol = 100; Heiman et al., J. Med. Chem., 23, 994 (1980); cited from earlier work
[6] = system: catechol estrogen formation; conditions: cited from earlier work
[7] = 224 days after s.c. implantation of estrogen
[8] = 279 days after s.c. implantation of estrogen
[9] = 345 days after s.c. implantation of estrogen

**Q.** Which tumor induction [1] does the source give for C[C@]12CC[C@@H]3c4ccc(O)cc4CC[C@H]3[C@@H]1C[C@@H](O)[C@@H]2O [estriol] here?
**A.** induce tumors

**Q.** With C[C@]12CC[C@@H]3c4cc(O)c(O)cc4CC[C@H]3[C@@H]1CCC2=O [2-hydroxyestrone] as the compound, how does the “covalent binding to protein or peptides” value (protein or peptides) read?
**A.** bind covalently

**Q.** And the “covalent binding to DNA” value (DNA)?
**A.** bind covalently

**Q.** What about the estrogenic activity (estrogenic activity) of the same compound?
**A.** almost devoid of estrogenic activity

**Q.** Which “animals judged histologically to be preneoplastic” value ([2]; 224 days) does the source give for C[C@]12CC[C@@H]3c4ccc(O)c(F)c4CC[C@H]3[C@@H]1CC[C@@H]2O [4-fluoro-β-estradiol] here?
**A.** 2 of 4

**Q.** And the “No. of Animals with Tumors/No. of Animals Examined” value (“No. of Animals” for short) [2, 7]?
**A.** 1/4

**Q.** What about the “No. of Animals” value [2, 8] of the same compound?
**A.** 3/6

**Q.** What about the “No. of Animals” value [2, 9] of the same compound?
**A.** 0/3

**Q.** And the estrogen receptor affinity (estrogen receptor [3])?
**A.** high receptor affinity

**Q.** What about the “Range Of Testes Weight Of Male Hamsters” value ([4]; 224 days) of the same compound?
**A.** 0.18-0.28 % Of Total Body Weight

**Q.** And the “estrogen receptor binding affinity, ratio of association constants (Ka compound/Ka estradiol)×100” value (estrogen receptor [5])?
**A.** 128

**Q.** What about the catechol estrogen formation ([6]; Krey et al. (1983)) of the same compound?
**A.** reduced catechol estrogen formation

**Q.** For CC/C(=C(/CC)c1ccc(O)cc1)c1ccc(O)cc1 [DES, diethylstilbestrol], which tumor induction [1] is on record?
**A.** increase the number of tumors

**Q.** With C[C@]12CC[C@@H]3c4ccc(O)cc4CC[C@H]3[C@@H]1CC[C@@H]2O [estradiol] as the compound, how does the “No. of Animals” value [2, 7] read?
**A.** 4/4

**Q.** And the “No. of Animals” value [2, 8]?
**A.** 5/5

**Q.** What about the “No. of Animals” value [2, 9] of the same compound?
**A.** 0/4

**Q.** And the tumor induction [1]?
**A.** induce tumors

**Q.** And the “Range Of Testes Weight Of Male Hamsters” value ([4]; 224 days)?
**A.** 0.12-0.26 % Of Total Body Weight

**Q.** And the “testes weight relative to untreated hamsters” value ([4]; 224 days, shrinking to % of the weights of testes in untreated hamsters)?
**A.** approximately 10%

**Q.** With C[C@]12CC[C@@H]3c4cc(F)c(O)cc4CC[C@H]3[C@@H]1CC[C@@H]2O [2-fluoro-β-estradiol, 2-fluoro-3,17β-estradiol] as the compound, how does the “No. of Animals” value [2, 7] read?
**A.** 0/4

**Q.** And the “No. of Animals” value [2, 8]?
**A.** 0/4

**Q.** What about the “No. of Animals” value [2, 9] of the same compound?
**A.** 0/3

**Q.** What about the “potential for induced renal clear cell carcinomas” value ([2]; in words, compared with estradiol or 4-fluoro-β-estradiol at equal estrogen dosages) of the same compound?
**A.** greatly decreased potential

**Q.** And the “carcinogenicity (conclusion)” value ([2]; in words, particular animal model)?
**A.** non-carcinogenic

**Q.** And the estrogen receptor affinity (estrogen receptor [3])?
**A.** high receptor affinity

**Q.** And the “Range Of Testes Weight Of Male Hamsters” value ([4]; 224 days)?
**A.** 0.18-0.25 % Of Total Body Weight

**Q.** And the “estrogenicity (conclusion)” value ([4]; in words, hamster model)?
**A.** highly estrogenic

**Q.** What about the “estrogen receptor binding affinity, ratio of association constants (Ka compound/Ka estradiol)×100” value (estrogen receptor [5]) of the same compound?
**A.** 86

**Q.** What about the catechol estrogen formation [6] of the same compound?
**A.** reduced catechol estrogen formation

**Q.** Which results are given for C[C@]12CC[C@@H]3c4ccc(O)c(O)c4CC[C@H]3[C@@H]1CCC2=O [4-hydroxyestrone]?
**A.** covalent binding to protein or peptides (protein or peptides): bind covalently; covalent binding to DNA (DNA): bind covalently; estrogenic activity (estrogenic activity): almost devoid of estrogenic activity

**Q.** What does the source list for C[C@]12CC[C@@H]3c4ccc(O)c(O)c4CC[C@H]3[C@@H]1CC[C@@H]2O [4-hydroxyestradiol]?
**A.** covalent binding to protein or peptides (protein or peptides; in vitro): bind covalently; covalent binding to DNA (DNA; in vitro): bind covalently; estrogenic activity (estrogenic activity): almost devoid of estrogenic activity

**Q.** Which results are given for C[C@]12CC[C@@H]3c4cc(O)c(O)cc4CC[C@H]3[C@@H]1CC[C@@H]2O [2-hydroxyestradiol]?
**A.** covalent binding to protein or peptides (protein or peptides; in vitro): bind covalently; covalent binding to DNA (DNA; in vitro): bind covalently; estrogenic activity (estrogenic activity): almost devoid of estrogenic activity

**Q.** With C[C@]12CC[C@@H]3c4ccc(O)cc4CC[C@H]3[C@@H]1CCC2=O [estrone] as the compound, how does the tumor induction [1] read?
**A.** induce tumors
